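Values below derive from 48-hour exposures of cells grown in 96-well plates, with endpoints linearly interpolated between the two concentrations bracketing the appropriate inhibition level. At the GI50, growth is halved.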 The source made the active and inactive calls. Cut-off read from the data, not from the text of the source: active = GI50 up to about 1.1 µM and inactive = higher.
Key:
Test in all cases: NCI tumour cell line growth inhibition, 48 h
[1] = system: K562
[2] = system: HT-29
[3] = system: OVCAR-8
[4] = system: NCI-H23
[5] = system: HOP-92
[6] = system: U-251
[7] = system: COLO 205
[8] = system: UO-31
[9] = system: T47D
[10] = system: SNB-75
[11] = system: MOLT-4
[12] = system: LOX IMVI
[13] = system: HL-60
[14] = system: HCT-15
[15] = system: Malme-3M
[16] = system: HOP-62
[17] = system: RPMI-8226
[18] = system: OVCAR-4
[19] = system: BT-549

Measured: GI50

NC(=O)c1nnsc1NC=O
inactive: [1] > 100 µM | [2] > 100 µM | [3] > 100 µM | [4] > 100 µM | [5] 75 µM | [6] > 100 µM | [7] > 100 µM | [8] > 100 µM | [9] > 100 µM | [10] > 100 µM | [11] > 100 µM | [12] > 100 µM | [13] > 100 µM | [15] > 100 µM | [16] > 100 µM | [17] > 100 µM
> 100 µM: [14]

CCOC(=O)N1CCC2(CC1)C[C@@](C(C)=O)(c1ccccc1)C(C)O2 (stereo partly drawn)
> 100 µM: [14]
inactive: [1] > 100 µM | [2] > 100 µM | [3] > 100 µM | [18] > 100 µM | [4] > 100 µM | [5] 61.1 µM | [6] > 100 µM | [7] > 100 µM | [8] > 100 µM | [9] 17 µM | [10] 80.7 µM | [11] > 100 µM | [12] > 100 µM | [13] > 100 µM | [15] > 100 µM | [16] > 100 µM | [17] > 100 µM

CCOC(=O)/C(=C\NC(=S)Nc1ccc(OCC)cc1)C(=O)c1ccccc1
> 100 µM: [14]
inactive: [1] > 100 µM | [2] > 100 µM | [3] > 100 µM | [18] 79.8 µM | [4] > 100 µM | [5] 8.26 µM | [6] > 100 µM | [7] > 100 µM | [9] 24 µM | [10] 44.2 µM | [11] > 100 µM | [12] > 100 µM | [13] > 100 µM | [15] > 100 µM | [16] > 100 µM | [17] > 100 µM

C=C(C)C#CC(O)(C(=O)OC1CCN(C)CC1)C(C)C (stereo not drawn)
> 100 µM: [14]
inactive: [1] > 100 µM | [2] > 100 µM | [3] > 100 µM | [4] > 100 µM | [6] > 100 µM | [7] > 100 µM | [8] > 100 µM | [9] > 100 µM | [10] > 100 µM | [11] > 100 µM | [12] > 100 µM | [13] > 100 µM | [15] > 100 µM | [16] > 100 µM | [17] > 100 µM

O=C1c2cccc3cc([N+](=O)[O-])cc(c23)C(=O)N1CCCN1CCN(CCCNc2ccc3ncn4c5ccccc5c(=O)c2c34)CC1
< 0.005 µM: [14]
active: [2] < 0.005 µM | [3] < 0.005 µM | [18] 0.00547 µM | [4] < 0.005 µM | [5] 0.013 µM | [6] < 0.005 µM | [7] < 0.005 µM | [8] < 0.005 µM | [10] < 0.005 µM | [11] < 0.005 µM | [12] < 0.005 µM | [13] < 0.005 µM | [15] < 0.005 µM | [16] < 0.005 µM | [17] < 0.005 µM | [19] < 0.005 µM

COC(=O)c1ccc(Oc2nc3ccccc3nc2-c2cccs2)cc1
75.5 µM: [14]
inactive: [1] > 10 µM | [2] > 100 µM | [3] 51.8 µM | [18] > 100 µM | [4] 23.6 µM | [7] > 100 µM | [8] > 100 µM | [9] 60.8 µM | [10] 7.83 µM | [11] > 100 µM | [12] > 100 µM | [13] > 100 µM | [15] > 100 µM | [16] 11.9 µM | [19] 45.7 µM

C=CCC(N(C)C(=O)[C@H](Cc1ccccc1)NC(=O)OCc1ccccc1)P(=O)(Oc1ccccc1)Oc1ccccc1 (stereo partly drawn)
inactive: [1] 9.2 µM | [2] > 100 µM | [3] > 100 µM | [4] > 100 µM | [5] 29 µM | [6] > 100 µM | [7] 8.43 µM | [8] 5.5 µM | [10] 80.5 µM | [11] 2.77 µM | [12] > 100 µM | [13] 12.8 µM | [15] > 100 µM | [16] > 100 µM | [17] 6.81 µM

O=C1CCCCCCCCCCC(=O)N2CCOCCOCCN1Cc1cccc(n1)C2
> 100 µM: [14]
inactive: [1] 81.1 µM | [2] > 100 µM | [3] > 100 µM | [18] > 100 µM | [4] > 100 µM | [6] > 100 µM | [7] > 100 µM | [8] > 100 µM | [10] 56 µM | [11] 39.6 µM | [12] > 100 µM | [15] > 100 µM | [16] > 100 µM | [17] 36.1 µM

CN(C)c1n/c(=N/Cc2ccccn2)ss1
9.68 µM: [14]
inactive: [1] 2.51 µM | [2] > 10 µM | [3] > 5.3 µM | [18] > 7.26 µM | [4] > 10 µM | [5] > 10 µM | [6] > 10 µM | [7] > 10 µM | [8] > 10 µM | [9] > 10 µM | [10] > 10 µM | [11] 1.78 µM | [12] 2.51 µM | [13] 2.18 µM | [15] > 4.61 µM | [16] > 10 µM | [17] 4.48 µM

Cn1c2ccccc2n2c3ccccc3c(=S)c(C#N)c12
> 100 µM: [14]
inactive: [1] > 100 µM | [2] > 100 µM | [3] > 100 µM | [18] > 100 µM | [4] > 100 µM | [6] > 100 µM | [7] > 10 µM | [8] > 100 µM | [9] > 10 µM | [10] > 100 µM | [11] > 100 µM | [12] > 100 µM | [13] > 100 µM | [16] 53.1 µM | [17] > 100 µM | [19] > 100 µM

O=c1ccn(C2OC(CO)C(O)C2[Se]c2ccccc2)c(=O)[nH]1 (stereo not drawn)
> 100 µM: [14]
inactive: [1] > 100 µM | [2] > 100 µM | [3] > 100 µM | [18] > 100 µM | [4] > 100 µM | [5] > 100 µM | [6] > 100 µM | [7] > 100 µM | [8] > 100 µM | [10] > 100 µM | [11] > 100 µM | [12] > 100 µM | [13] > 100 µM | [15] > 100 µM | [16] > 100 µM | [19] > 100 µM

Oc1cccc(-c2cc(=S)ss2)c1
inactive: [1] 8.57 µM | [2] 24.7 µM | [3] 17.7 µM | [18] 18.6 µM | [4] 8.79 µM | [5] 13.9 µM | [6] 14.8 µM | [7] 18.4 µM | [8] 14.3 µM | [11] 3.22 µM | [12] 14.8 µM | [13] 15 µM | [15] 17.6 µM | [16] 17.6 µM | [17] 2.24 µM | [19] 16.7 µM
15.1 µM: [14]

CC1C[C@@]2(c3ccccc3)C(=O)CCC[C@H]2N1 (stereo partly drawn)
inactive: [1] > 100 µM | [2] > 100 µM | [3] > 100 µM | [18] > 100 µM | [4] > 100 µM | [5] 29.6 µM | [6] > 100 µM | [8] > 100 µM | [10] > 100 µM | [11] > 100 µM | [13] > 100 µM | [15] 16.9 µM | [16] > 100 µM

Source: ChEMBL document CHEMBL1201862, “PubChem BioAssay data set” (2004)
